Test results as given in patent US11001569B2, “6-membered heteroaromatic substituted cyanoindoline derivatives as NIK inhibitors” (Janssen Pharmaceutica NV, priority 2016, dated 2021).
Read-outs that look alike come from different tables or passages of the source.

Experiments:
[1] = tested on: KMS12-BM (NIK WT) multiple myeloma cells; test: Antiproliferative activity on KMS12-BM multiple myeloma cells (CellTiter-Glo); assay type: cell-based, human; conditions: 96 hr treatment, averaged values, read-out: KMS-12 Proliferation inhibition (IC50 (nM))
Experimental: (§1) Determination of Antiproliferative Activity on JJN-3 (NIK Translocated) and KMS12-BM (NIK WT) Multiple Myeloma Cells
(§2) All compounds tested were dissolved in DMSO and further dilutions were made in culture medium. Final DMSO concentration was 0.3% (v/v) in cell proliferation assays. Viability was assessed using CellTiter-Glo cell viability assay kit (Promega). […] Cells were routinely kept as suspension cells at 37° C. in a humidified 5% CO2 atmosphere. Cells were passaged at a seeding density of 0.2×10^6/ml twice a week. Cells were seeded in black tissue culture treated 96-well plates (Perkin Elmer). Densities used for plating ranged from 15000 (JJN3) to 20000 (KMS12BM) cells per well in a total volume of 135 μl medium. Drugs and/or solvents were added (15 μl) to a final volume of 150 μl. Following 96 hr of treatment, plates were removed from the incubator and allowed to equilibrate to room temperature for approx 10 min. 75 μl CellTiter-Glo reagent was added to each well that was then covered (Perkin Elmer Topseal) and shaken on plate shaker for 10 min. Luminescence was measured on a HTS Topcount (Perkin Elmer). […] For initial screening purposes, compounds were tested using a 9 point dilution curve (serial 1:3 dilutions). For each experiment, controls (containing no drug) and a blank incubation (containing cells read at the time of compound addition) were run in parallel. The blank value was subtracted from all control and sample values. For each sample, the mean value for cell growth (in relative light units) was expressed as a percentage of the mean value for cell growth of the control.

[2] = tested on: JJN-3 (NIK translocated) multiple myeloma cells; test: Antiproliferative activity on JJN-3 multiple myeloma cells (CellTiter-Glo); assay type: cell-based, human; conditions: JJN-3 (NIK translocated) cells, 96 hr treatment, averaged values, read-out: JJN-3 Proliferation inhibition (IC50 (nM))
Experimental: as §1, §2

[3] = tested on: P-IKKα levels in L363 (NIK translocated multiple myeloma) cells; test: Effect of compounds on P-IKKα levels in L363 cells (Mesoscale sandwich immuno-assay); assay type: cell-based, human; conditions: 2 hr treatment, averaged values, read-out: Inhibition of pIKKα_L-363 (IC50 (nM))
Experimental: Effect of Compounds on P-IKKα Levels in L363 (NIK Translocated Multiple Myeloma) Cells
All compounds tested were dissolved in DMSO and further dilutions were made in culture medium. Final DMSO concentration was 1% (v/v) in cell assays. The human L363 cells (ATCC) were cultured in RPMI 1640 medium supplemented with GlutaMax and 10% fetal calf serum (PAA). Cells were routinely maintained at densities of 0.2×10^6 cells per ml-1×10^6 cells per ml at 37° C. in a humidified 5% CO2 atmosphere. Cells were passaged twice a week splitting back to obtain the low density. Cells were seeded in 96 well plates (Nunc 167008) at 2×10^6 per ml media in a volume of 75 μl per well plus 25 μl 1 μg/ml recombinant human B-cell activating factor (BAFF/BLyS/TNFSF13B). Seeded cells were incubated at 37° C. in a humidified 5% CO2 atmosphere for 24 hr. Drugs and/or solvents were added (20 μl) to a final volume of 120 μl. Following 2 hr treatment plates were removed from the incubator and cell lysis was achieved by the addition of 30 μl 5× lysis buffer followed by shaking on a plate shaker at 4° C. for 10 min. At the end of this incubation lysed cells were centrifuged at 800×g for 20 min at 4° C. and the lysate was assessed for P-IKK levels by sandwich immuno-assay carried out in anti-rabbit antibody coated Mesoscale plates. Within an experiment, the results for each treatment were the mean of 2 replicate wells. For initial screening purposes, compounds were tested using an 8 point dilution curve (serial 1:3 dilutions). […] The blank incubation value was subtracted from all control and sample values. To determine the IC50 a sigmoidal curve was fitted to the plot of % inhibition of control P-IKKα levels versus Log10 compound concentration.

[4] = target: recombinant human NF-kappaB-inducing Kinase (NIK/MAP3K14) (Homo sapiens, UniProt Q99558); test: Inhibition of auto-phosphorylation of recombinant human NIK/MAP3K14 activity (AlphaScreen); assay type: biochemical; conditions: 25 microM ATP, averaged over all measurements on all batches
Chain of recombinant human NF-kappaB-inducing Kinase (NIK/MAP3K14) (Q99558 whole entry): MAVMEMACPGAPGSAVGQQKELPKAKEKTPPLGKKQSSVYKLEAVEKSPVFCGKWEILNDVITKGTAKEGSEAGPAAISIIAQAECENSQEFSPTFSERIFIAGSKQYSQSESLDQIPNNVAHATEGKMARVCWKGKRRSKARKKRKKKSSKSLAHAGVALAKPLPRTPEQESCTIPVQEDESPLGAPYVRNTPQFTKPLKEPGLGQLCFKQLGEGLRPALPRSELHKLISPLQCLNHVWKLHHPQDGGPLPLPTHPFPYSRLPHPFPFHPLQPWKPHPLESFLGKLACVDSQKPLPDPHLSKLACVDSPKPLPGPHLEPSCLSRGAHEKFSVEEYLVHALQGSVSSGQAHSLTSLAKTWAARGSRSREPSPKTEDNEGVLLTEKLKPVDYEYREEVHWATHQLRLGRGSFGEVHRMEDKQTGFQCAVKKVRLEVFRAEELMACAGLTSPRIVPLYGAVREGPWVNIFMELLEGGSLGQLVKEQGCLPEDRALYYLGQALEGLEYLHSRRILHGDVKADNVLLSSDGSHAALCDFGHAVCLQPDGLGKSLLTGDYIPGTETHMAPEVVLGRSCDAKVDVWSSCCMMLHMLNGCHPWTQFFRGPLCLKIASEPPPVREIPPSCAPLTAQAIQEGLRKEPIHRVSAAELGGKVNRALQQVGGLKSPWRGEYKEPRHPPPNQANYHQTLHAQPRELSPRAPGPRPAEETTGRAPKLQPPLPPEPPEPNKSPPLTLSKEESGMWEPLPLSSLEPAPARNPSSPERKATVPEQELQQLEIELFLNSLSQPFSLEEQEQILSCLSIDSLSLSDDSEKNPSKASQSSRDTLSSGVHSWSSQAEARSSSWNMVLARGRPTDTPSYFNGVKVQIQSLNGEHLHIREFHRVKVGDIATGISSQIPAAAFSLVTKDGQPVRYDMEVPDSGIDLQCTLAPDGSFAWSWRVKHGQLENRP
Experimental: Pharmacological Part Biological assay A Inhibition of auto-phosphorylation of recombinant human NF-kappaB-inducing Kinase (NIK/MAP3K14) Activity (AlphaScreen®)
NIK/MAP3K14 auto-phosphorylation activity was measured using the AlphaScreen® (αscreen) format (Perkin Elmer). All compounds tested were dissolved in dimethyl sulfoxide (DMSO) and further dilutions were made in assay buffer. Final DMSO concentration was 1% (v/v) in assays. Assay buffer was 50 mM Tris pH 7.5 containing 1 mM EGTA (ethylene glycol tetraacetic acid), 1 mM DTT (dithiothreitol), 0.1 mM Na3VO4, 5 mM MgCl2, 0.01% Tween® 20. Assays were carried out in 384 well Alphaplates (Perkin Elmer). […] Incubations were initiated by addition of GST-tagged NIK/MAP3K14 enzyme, carried out for 1 h at 25° C. and terminated by addition of stop buffer containing anti-phospho-IKK Ser176/180 antibody. Protein A Acceptor and Glutathione-Donor beads were added before reading using an EnVision® Multilabel Plate Reader (Perkin Elmer). Signal obtained in the wells containing blank samples was subtracted from all other wells and IC50's were determined by fitting a sigmoidal curve to % inhibition of control versus Log10 compound concentration.

SMILES | IC50 ([1]; Homo sapiens, KMS-12-BM, 96 h) [nM] | IC50 ([2]; Homo sapiens, JJN-3, 96 h) [nM] | IC50 ([3]; Homo sapiens, L-363, 2 h) [nM] | IC50 [4] [nM] | IC50 [1] [nM] | IC50 [2] [nM] | IC50 [3] [nM] | melting point [°C] | IC50 ([1]; Homo sapiens, KMS-12-BM) [nM] | IC50 ([2]; Homo sapiens) [nM]
Cc1cc(Nc2nccc(-c3cc(C#N)c4c(c3)[C@@](C)(CO)CN4)n2)c(C)nc1OC1CCN(C)CC1 [Compound 172] | ~2190 | 26 | 3.9 | 4.1 |  |  |  |  |  | 
Cc1cnc(OC2CCN(C)CC2F)c(Nc2nccc(-c3cc(C#N)c4c(c3)[C@@](C)(CO)CN4)n2)c1 (mixture of isomers) [Compound 171] |  |  |  | 7.4 | > 10000 | 12 | 6.9 |  |  | 
COCCOc1nc(C2CCOCC2)ncc1Nc1nccc(-c2cc(C#N)c3c(c2)[C@@](C)(CO)CN3)n1 [Compound 141] | 4790 | 741 | 355 | 18.6 |  |  |  |  |  | 
Cc1cnc(CCC2CC2)c(Nc2nccc(-c3cc(C#N)c4c(c3)[C@@](C)(CO)CN4)n2)c1 [Compound 68] | 5130 | 98 | ~20 | 3.9 |  |  |  |  |  | 
COCCCc1ccc(Nc2nccc(-c3cc(C#N)c4c(c3)[C@@](C)(CO)CN4)n2)c(OC)n1 [Compound 58] | > 10000 | 200 | ~17 | 6.9 |  |  |  |  |  | 
Cc1cc(Nc2nccc(-c3cc(C#N)c4c(c3)[C@@](C)(CO)CN4)n2)c(CCC2CC2)nc1P(C)(C)=O [Compound 96] | > 10000 | 65 | 1.1 | 2.2 |  |  |  |  |  | 
CNC(=O)c1cc(Nc2nccc(-c3cc(C#N)c4c(c3)[C@@](C)(CO)CN4)n2)c(=O)n(CC2CC2)c1 [Compound 25i] | > 10000 | 120 | 9.5 | 1.7 |  |  |  |  |  | 
CC1(CO)CNc2c(C#N)cc(-c3nc(Nc4cccnc4OC4CCOCC4)ncc3F)cc21 (centres unmarked) [Compound 107] | 562 | 309 |  | 4.8 |  |  |  | 226 |  | 
CC1(CO)CNc2c(C#N)cc(-c3ccnc(Nc4cccnc4C(F)(F)F)n3)cc21 (centres unmarked) [Compound 31] | > 10000 | 2000 |  | 9.8 |  |  |  | 202 |  | 
COCCOc1ncccc1Nc1ncc(F)c(-c2cc(C#N)c3c(c2)[C@@](C)(CO)CN3)n1 [Compound 106] | 2630 | 275 |  | 3.4 |  |  |  | > 250 |  | 
CN1CCC(c2cc(Nc3nccc(-c4cc(C#N)c5c(c4)[C@@](C)(CO)CN5)n3)c(=O)n(CC3CC3)c2)CC1 [Compound 21i] |  |  | 550 | 64.6 |  |  |  |  |  | 
COc1ncccc1Nc1nccc(-c2cc(C#N)c3c(c2)C(C)(COCCN2CCOCC2)CN3)n1 (centres unmarked) [Compound 117] | > 10000 | > 10000 |  | 45.7 |  |  |  | 108 |  | 
CC(C)OCCOc1ncccc1Nc1nccc(-c2cc(C#N)c3c(c2)[C@@](C)(CO)CN3)n1 [Compound 19] | > 10000 | 912 |  | 14.5 |  |  |  | 154 |  | 
COc1ncccc1Nc1nccc(-c2cc(C#N)c3c(c2)C(C)(COCCNC(C)C)CN3)n1 (centres unmarked) [Compound 116] | > 10000 | 2040 |  | 85.1 |  |  |  | 95 |  | 
COCCNc1nc(OC(C)C)c(Nc2nccc(-c3cc(C#N)c4c(c3)C(C)(CO)CN4)n2)cc1Cl (centres unmarked) [Compound 13] | > 10000 | 447 |  | 28.8 |  |  |  | 125 |  | 
Cc1ccnc(Nc2nccc(-c3cc(C#N)c4c(c3)C(C)(CO)CN4)n2)n1 (centres unmarked) [Compound 126] | > 10000 | 2510 |  | 148 |  |  |  | 227 |  | 

Further lines, results first:

IC50 ([1]; Homo sapiens, KMS-12-BM, 96 h) [nM] | IC50 ([2]; Homo sapiens, JJN-3, 96 h) [nM] | IC50 ([3]; Homo sapiens, L-363, 2 h) [nM] | IC50 [4] [nM] | IC50 [1] [nM] | IC50 [2] [nM] | IC50 [3] [nM] | melting point [°C] | IC50 ([1]; Homo sapiens, KMS-12-BM) [nM] | IC50 ([2]; Homo sapiens) [nM] | SMILES
 |  | 51.3 | 18.2 |  |  |  |  |  |  | CNC(=O)c1ncc(Cl)cc1Nc1nccc(-c2cc(C#N)c3c(c2)C(C)(CO)CN3)n1 (centres unmarked) [Compound 178]
> 10000 | 1580 |  | 15.5 |  |  |  | 245 |  |  | COc1ncccc1Nc1nccc(-c2cc(C#N)c3c(c2)[C@](C)(CO)CN3)n1 [Compound 7]
> 10000 | 1580 |  | 6.5 |  |  |  | > 250 |  |  | COc1ncc(Cl)cc1Nc1ncc(F)c(-c2cc(C#N)c3c(c2)C(C)(CO)CN3)n1 (centres unmarked) [Compound 102]
> 10000 | 3470 |  | 1.8 |  |  |  | 210 |  |  | COc1ccncc1Nc1nccc(-c2cc(C#N)c3c(c2)[C@@](C)(CO)CN3)n1 [Compound 37]
> 10000 | 372 |  | 5.5 |  |  |  | 266 |  |  | COc1ncc(Cl)cc1Nc1nccc(-c2cc(C#N)c3c(c2)[C@@](C)(CO)CN3)n1 [Compound 14]
 |  |  | 22.4 |  |  |  | 170 | > 10000 | 813 | CC(C)OCCOc1ncc(Cl)cc1Nc1nccc(-c2cc(C#N)c3c(c2)[C@@](C)(CO)CN3)n1 [Compound 21]
3800 | 550 |  | 16.6 |  |  |  | 143 |  |  | CCCCOc1ncccc1Nc1nccc(-c2cc(C#N)c3c(c2)[C@@](C)(CO)CN3)n1 [Compound 40]
~2690 | 79 | 81.3 |  |  |  |  |  |  |  | COc1ncccc1Nc1nccc(-c2cc(C#N)c3c(c2)C(C)(CO)CN3)n1 (centres unmarked) [Compound 1]
> 10000 | 2000 |  | 18.2 |  |  |  | 231 |  |  | COCCOc1nc(C)ncc1Nc1nccc(-c2cc(C#N)c3c(c2)[C@@](C)(CO)CN3)n1 [Compound 136]
 |  | 25.1 | 5.2 |  |  |  |  |  |  | COc1ncccc1Nc1ncnc(-c2cc(C#N)c3c(c2)[C@@](C)(CO)CN3)n1 [Compound 181]
> 10000 | 112 |  | 11.2 |  |  |  | > 250 |  |  | COc1ncc(Cl)cc1Nc1ncc(F)c(-c2cc(C#N)c3c(c2)[C@@](C)(CO)CN3)n1 [Compound 104]
 |  | 1440 | 93.3 |  |  |  |  |  |  | CC1(CO)CNc2c(C#N)cc(-c3ccnc(Nc4cc(Cl)cnc4C(=O)N4CCCC4)n3)cc21 (centres unmarked) [Compound 179]
> 10000 | 288 |  | 3.3 |  |  |  | > 250 |  |  | COc1ncc(F)cc1Nc1nccc(-c2cc(C#N)c3c(c2)[C@@](C)(CO)CN3)n1 [Compound 36]
